Tests used:
Assay type in all cases: in vivo, Sprague-Dawley rats
[1] = tested on: CA1/CA3 degenerative cells in the cerebral cortex and hippocampus; assay: Fluoro-Jade B (FJB) staining of brain tissue after KA injection; settings: pretreatment; three days after KA 15 mg/kg i.p.; p<0.05 vs KA group
Method: (§1) Continuing from Example 3, the experimental animals in each group were sacrificed three days after intraperitoneal injection of KA (15 mg/kg), and the brain tissues were taken out for sectioning and other relevant experimental analysis.
This phenomenon can also be reduced by the pretreatment with the birch sap extract and betulin (p<0.05; FIGS. 4A and 4B).

[2] = tested on: cerebral cortex and hippocampus CA1/CA3 nerve cells; assay: Nissl staining of brain tissue after KA injection; settings: pretreatment; three days after KA 15 mg/kg i.p.; p<0.05 vs KA group
Method: as §1

KA-induced seizures = assay: kainic acid (KA)-induced epilepsy model in animals, epileptic behavior by Racine scale; settings: for Death: dead/total rats; for Seizure %: share of rats with seizures; for Seizure stage: then KA 15 mg/kg i.p., Racine scale within 4 hours
Method: Male Sprague-Dawley rats (SD rat, 150-200 g) were purchased from BioLASCO (Taiwan) and bred in Fu Jen Laboratory Animal Center. All animal experiments were approved by the IACUC of Fu Jen Catholic University. According to the 3R principles, all experiments were performed to minimize animal suffering and use the minimum number of animals necessary to produce reliable results.
The antiepileptic effect of the birch sap extract was evaluated using kainic acid (KA)-induced epilepsy model in animals. KA is an analogue of glutamate, and injection of KA into rats will increase the release of glutamate and overactivate glutamate receptors, resulting in progressive limbic seizures in rats. This phenomenon leads to increased calcium ions in nerve cells, oxidative stress, and loss of mitochondrial function, resulting in the death of nerve cells in many areas of the brain, especially in the cerebral cortex and hippocampus. In addition, KA-induced neuronal cell death is related to glial cell activation and inflammatory response caused by inflammatory molecules, such as interleukin-1β (IL-1β), interleukin-6 (IL-6), tumor necrosis factor-α (TNF-α), high mobility group Box 1 (HMGB1), interleukin 1 receptor 1 (IL-1R1), and Toll-like receptor-4 (TLR-4).
Epileptic behavioral expressions were analyzed within 4 hours after intraperitoneal injection of KA in rats.
Sprague-Dawley rats were divided into the following groups according to the administration of different test substances: • 1. Negative control group: normal saline • 2. KA group: 15 mg/kg/i.p./single dose of kainic acid (KA) • 3. Low-dose group of birch sap extract: 6 mg/kg of birch sap extract • 4. High-dose group of birch sap extract: 10 mg/kg of birch sap extract • 5. High-dose group of antiepileptic drug: 100 mg/kg of carbamazepine (CBZ) • 6. Antiepileptic pharmaceutical combination group: 6 mg/kg of birch sap extract and 50 mg/kg of CBZ • 7. Low-dose group of antiepileptic drug: 50 mg/kg of CBZ
The control group, birch sap extract groups, antiepileptic drug groups, and antiepileptic pharmaceutical combination group were fed with normal saline, birch sap extract and/or CBZ through feeding tubes at regular intervals every day. One week later, except for the negative control group, rats in each group were intraperitoneally injected with KA (15 mg/kg/i.p./single dose), and the dose of KA injection was based on the previous study. The epileptic behavior of rats was analyzed according to Racine scale (1972) within 4 hours after intraperitoneal injection of KA.

C=C(C)[C@@H]1CC[C@]2(CO)CC[C@]3(C)[C@H](CC[C@@H]4[C@@]5(C)CC[C@H](O)C(C)(C)[C@@H]5CC[C@]43C)[C@@H]12 [betulin]
number of CA1/CA3 degenerative cells in the cerebral cortex and hippocampus (FJB staining) [1]: reduced
number of neurocytes in cerebral cortex and hippocampus CA1/CA3 (Nissl staining) [2]: reduce the decrease in the number of neurocytes

NC(=O)N1c2ccccc2C=Cc2ccccc21 [CBZ, carbamazepine]
Death (KA-induced seizures; CBZ 50 mg/kg + KA): 0/3
Latency to first seizure (KA-induced seizures; CBZ 50 mg/kg + KA, mean ± SEM): 89 ± 17 min
Seizure % (KA-induced seizures; CBZ 50 mg/kg + KA): 66%
Seizure stage (KA-induced seizures; CBZ 50 mg/kg oral daily for one week, mean ± SEM): 3.6 ± 0.3
Latency to first seizure (KA-induced seizures; CBZ 100 mg/kg + KA): 140 min
Death (KA-induced seizures; CBZ 100 mg/kg + KA): 1/11
Seizure % (KA-induced seizures; CBZ 100 mg/kg + KA): 10%
Seizure stage (KA-induced seizures; CBZ 100 mg/kg oral daily for one week, mean ± SEM): 0.9 ± 0.5
time and severity of seizures compared with the KA group (KA-induced seizures; low-dose group of antiepileptic drug, CBZ 50 mg/kg): not statistically different
